Reference: patent US8633177B2, “Nitroxyl (HNO) releasing compounds and uses thereof in treating diseases” (The United States of America, as represented by the …, priority 2010, dated 2014)
Read-outs that look alike come from different tables or passages of the source.

Tests used:
[1] = NO release measured with NO specific electrode, 2% serum; type: physicochemical; conditions: 100 μM; for NO release: 2% serum; for [NO]pA: phosphate buffer pH 7.4, 2% serum
Experimental: The release of NO was evaluated using an NO specific electrode. The NO electrode was stabilized in phosphate buffer pH 7.4 containing 2% serum. Compounds 4 and 8 in DMSO were added and the NO signal was measured. The experiment was repeated in the presence of 1 mM sodium ferricyanide.
Since there is no direct method for detection of HNO, 1 mM ferricyanide solution was used, which converts HNO to NO that can then be detected using NO electrode. K3Fe(CN)6+HNO ? NO

[2] = system: breast cancer cells; assay: MTT cell survival, breast cancer cells (cell line not given); type: cell-based, human; conditions: 48 h of treatment, cell line not named
Experimental: (§1) The effect of NONO-aspirin on cell proliferation was studied using an MTT assay. The effect of DEA/NO-ASA, IPA/NO-ASA, aspirin, IPA/NO and DEA/NO was measured using the MTT assay. Cells were plated at a concentration of 8,000-10,000 cells per well in a 96 well plate and grown overnight. Cells were treated with different concentrations of the compounds and controls for 48 h. After 48 h, a solution of 5 mg/ml MTT was added to each well and incubated for 1 h. Then the media was removed from each well and 100 uL DMSO was added to each well and the absorbance was read at 550 nm. Inhibition of growth with different treatments was reported as percentage of corresponding control.

[3] = system: MB-231 breast cancer cell lines; assay: DAF assay of cell membrane penetration, MB-231; conditions: MB-231 cell line
Experimental: Intracellular NO/HNO release from the derivatized NSAIDs was determined using 4-amino-5-methylamino-2′,7′-difluorofluoroescein diacetate (DAF-FM diacetate) as in Example 9.

[4] = system: Prostaglandin E2; assay: PGE2 production, prostaglandin E2 EIA kit; type: cell-based; conditions: 24 h
Experimental: Cells were plated at a concentration of 50,000 cells per well and grown overnight. Then 25, 50, and 100 μM of DMSO, IPA/NO-aspirin, and DEA/NO-aspirin were added to the corresponding well for 24 h and incubated at 37° C. The supernant was then analyzed for PGE2 activity using prostaglandin E2 EIA kit (Cayman Cat No. 514010).

[5] = system: reactive oxygen species (ROS); assay: ROS level with DCF; type: cell-based; conditions: 100 μM
Experimental: To investigate the role of ROS in apoptosis, the ROS level was studied in the presence of the compounds in a time dependent manner using 2′,7′-dichlorofluorescein (DCF) in all four cell lines. Cells were plated at a concentration of 30,000 cells per well and grown overnight. Cells were treated with 100 μM DCF (Sigma Aldrich) and incubated for 30 min at 37° C. The cells were then washed five times with PBS pH 7.4 and 100 μM of IPA/NO-aspirin, DEA/NO-aspirin, IPA/NO, DEA/NO and aspirin were added.

[6] = system: MB-231 cells; assay: MTT cell survival, MDA-MB-231; type: cell-based, human; conditions: MTT assay
Experimental: MDA-MB-231, MCF-7 and MDA-MB-468, human breast carcinoma cell lines and MCF-10A, breast […] (American Type Culture Collection, Manassas, Va.) were grown as monolayers in RPMI 1640 supplemented with 10% FCS (Hyclone), penicillin (50 units/ml), streptomycin ([…]; Life Technologies, Inc., Grand Island, N.Y.) and endothelial growth media (Lonanza) respectively. Cells were seeded at a density of 1×10^6 cells/100-cm^2 culture dish and incubated at 37° C. in 5% CO2 and 80% relative humidity. Single-cell suspensions were obtained by trypsinization (0.05% trypsin/EDTA), and cells were counted using a Beckman cell counter.
1000× stock solutions aspirin, of a DEA/NO-ASA, and IPA/NO-ASA were made in DMSO and final concentration in the media or PBS was adjusted to 0.1% DMSO.
as §1, with “Inhibition of growth with different treatments was reported as percentage of corresponding control.” left out

[7] = system: p53; assay: Phosphorylation of p53 in MB-231 cells; type: cell-based, human; conditions: 50 μM IPA/NO-aspirin, 75 μM DEA/NO-aspirin
Experimental: MB-231 cells were plated at a concentration on 1E6 and grown for 24 h. Then the cells were serum starved overnight followed by treatment with 50 μM and 75 μM, respectively, of IPA/NO-aspirin and DEA/NO-aspirin for 3, 6, 12 h. The cells were harvested and lysed with lysis buffer (cell signaling). Cell lysate was centrifuged at 13,000 rpm for 20 min and the supernatant was transferred to fresh tube. Protein ([…]) of protein was loaded in each lane on a 15% tris-glycine gel and electrophoresis was completed at 120V.

[8] = system: HUVECs; assay: MTT assay, normal endothelial cell line HUVECs; type: cell-based
[9] = system: caspase-3; assay: Caspase-3 fluorescence assay, MDA-MB-468; type: cell-based, human; conditions: 12 h
Experimental: The caspase-3 activity in the presence of IPA/NO-ASA and DEA/NO-ASA was measured using caspase-3 fluorescence assay kit (Cat No. 10009135, Cayman Chemical). Cells were plated at a concentration of 50,000 cells per well in a 96 well plate and grown overnight. Then the cells were treated with different concentrations of the compounds and controls for 12 h. After 12 h, the plate was centrifuged at 800 g and the media was removed by aspiration. 100 μL of lysis buffer was added to each well and the plate was incubated for […] at room temperature. 100 μL of a caspase-3 substrate solution was added to each well and incubated for 30 min after which the fluorescence was read at excitation of 485 nm and emission of 535 nm.

[10] = system: A549 cells; assay: Intracellular NO/HNO by DAF-FM diacetate in A549 cells; type: cell-based
Experimental: The intracellular NO and HNO were determined by using 4-amino-5-methylamino-2′,7′-difluorofluorescein diacetate (DAF-FM diacetate) as the reporter molecule. Cells were plated at a concentration of 30,000 cells per well in a 96 cell plate and grown overnight. Then DAF-FM diacetate in DMSO was added to each well with a final concentration of 10 μM and incubated for 30 min. Each well was washed three times with PBS pH 7.4. The desired compound was then added and the fluorescence was measured at an excitation of 485 nm and emission of 535 nm using PerkinElmer HTS 7000 plate reader.
Both NO and HNO increased the fluorescence of DAF. The NO/HNO release profiles for compounds 4 and 8 within A549 cells were determined by loading the cells with DAF-FM diacetate, a cell permeable dye, which is cleaved by esterase to form DAF-FM and reacts with NO to form benzotriazole derivative with an excitation of 495 nm and emission of 515 nm (Kojima et al., Chemical & Pharm. Bulletin, 462 373-75 (1998)). […] Both 4 and 8 show temporal release in the presence and absence of cells. […] Moreover, when DAF-FM diacetate is present both inside and outside the cells, the fluorescence intensity is ten times higher than that without cells.

For `CCN(CC)[N+]([O-])=NOCOC(=O)c1ccccc1OC(C)=O` [DEA/NO-aspirin, O^2-(Acetylsalicyloyloxymethyl)-1-(N,N-Diethylamino)-diazen-1-ium-1,2-diolate], the NO release [1] was “readily released NO”, the “[NO]pA” value ([1]; +Ferricyanide 1 mM) was 5000 pA and the “[NO]pA” value ([1]; without ferricyanide) was 4600 pA. For the same molecule, the IC50 [2] was 75 µM, the cell membrane penetration [3] was “penetrated cell membranes” and the “Prostaglandin E2” value ([4]; 25 μM) was 21 pg/mL. The “Prostaglandin E2” value ([4]; 50 μM) was 38 pg/mL, the “Prostaglandin E2” value ([4]; 100 μM) was 36 pg/mL and the ROS level [5] was “much lower”. The IC50 [6] was 90 µM, the “time point of activation of p53 phosphorylation” value [7] was 1 h and the “cell death in MTT assay” value [8] was “No significant cell death”. For the same molecule, the “Caspase-3 Activity” value ([9]; MDA-MB-468, 25 μM) was 0.40 U/mL, the “Caspase-3 Activity” value ([9]; MDA-MB-468, 50 μM) was 0.38 U/mL and the “Caspase-3 Activity” value ([9]; MDA-MB-468, 100 μM) was 0.81 U/mL. The cell penetration [10] was “permeated the cell membrane with minimal decomposition” and the cell penetration ([10]; listed as 8) was “penetrate the cells”.

In the case of `CC(=O)Oc1ccccc1C(=O)OCON=[N+]([O-])NC(C)C` [IPA/NO-aspirin, O^2-(Acetylsalicyloyloxymethyl)-1-(N-isopropylamino)-diazen-1-ium-1,2-diolate], the NO release [1] is reported as “significantly lower NO production”, the “[NO]pA” value ([1]; +Ferricyanide 1 mM) is reported as 2100 pA and the “[NO]pA” value ([1]; without ferricyanide) is reported as 1000 pA. For the same molecule, the IC50 [2] was 50 µM, the cell membrane penetration [3] was “penetrated cell membranes” and the “Prostaglandin E2” value ([4]; 25 μM) was 17 pg/mL. The “Prostaglandin E2” value ([4]; 50 μM) was 14 pg/mL, the “Prostaglandin E2” value ([4]; 100 μM) was 13 pg/mL and the ROS level [5] was “significant increase in ROS level”. The IC50 [6] was 95 µM, the “time point of activation of p53 phosphorylation” value [7] was 10 h and the “cell death in MTT assay” value [8] was “No significant cell death”. For the same molecule, the “Caspase-3 Activity” value ([9]; MDA-MB-468, 25 μM) was 0.60 U/mL, the “Caspase-3 Activity” value ([9]; MDA-MB-468, 50 μM) was 0.60 U/mL and the “Caspase-3 Activity” value ([9]; MDA-MB-468, 100 μM) was 0.50 U/mL. The cell penetration [10] was “permeated the cell membrane with minimal decomposition” and the cell penetration ([10]; listed as 4) was “penetrate the cells”.
